Square brackets hold non-standard residues; d marks the D form. Peptide text beside a SMILES is read from it. * marks the point of attachment. Sta = CC(C)C[C@H](N)[C@@H](O)CC(=O)O; NMe2Val = CC(C)[C@@H](C(=O)*)N(C)C; dNMeF = CN[C@H](Cc1ccccc1)C(=O)O; dHiv = CC(C)[C@@H](O)C(=O)O; Hiv = CC(C)[C@H](O)C(=O)O
Tests used:
Interstitial collagenase = Interstitial collagenase (Homo sapiens, UniProt P03956); experiment: Inhibition of MMP1 after 10 to 15 mins by fluorescence assay
[1] = target: T1, Matrix metalloproteinase-9 (Homo sapiens, UniProt P14780); experiment: Inhibition of MMP9 catalytic domain after 10 to 15 mins by fluorescence assay
T1 sequence (P14780 whole entry, the tested form may be a part): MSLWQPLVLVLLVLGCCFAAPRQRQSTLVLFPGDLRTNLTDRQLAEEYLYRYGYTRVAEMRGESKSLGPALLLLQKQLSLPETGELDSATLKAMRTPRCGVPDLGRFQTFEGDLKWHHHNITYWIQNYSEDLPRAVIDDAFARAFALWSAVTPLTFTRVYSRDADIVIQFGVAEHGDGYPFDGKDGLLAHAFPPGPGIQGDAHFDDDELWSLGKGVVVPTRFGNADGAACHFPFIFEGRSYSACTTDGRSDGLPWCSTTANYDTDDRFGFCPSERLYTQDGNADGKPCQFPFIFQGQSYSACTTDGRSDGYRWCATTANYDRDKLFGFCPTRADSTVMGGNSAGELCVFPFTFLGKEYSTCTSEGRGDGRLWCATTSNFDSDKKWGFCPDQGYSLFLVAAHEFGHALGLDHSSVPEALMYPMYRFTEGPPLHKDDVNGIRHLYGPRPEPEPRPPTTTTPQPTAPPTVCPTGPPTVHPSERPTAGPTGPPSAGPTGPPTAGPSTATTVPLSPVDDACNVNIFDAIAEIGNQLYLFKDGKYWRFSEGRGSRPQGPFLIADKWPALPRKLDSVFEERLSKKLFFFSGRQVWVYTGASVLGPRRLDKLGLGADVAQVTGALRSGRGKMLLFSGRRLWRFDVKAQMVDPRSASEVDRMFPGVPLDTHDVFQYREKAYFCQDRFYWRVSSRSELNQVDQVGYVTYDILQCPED

Caspase-4 (Mus musculus) = Caspase-4 (Mus musculus) (UniProt P70343); experiment: Inhibition of mouse caspase 11 assessed as residual activity at 10 uM after 10 to 15 mins by fluorescence assay relative to control
[2] = target: Dipeptidyl peptidase 4 (Homo sapiens) (UniProt P27487); experiment: Inhibition of DPP4 assessed as residual activity at 10 uM after 10 to 15 mins by fluorescence assay relative to control
[3] = target: Kallikrein-8 (Homo sapiens) (UniProt O60259); experiment: Inhibition of kallikrein 8 assessed as residual activity at 10 uM after 10 to 15 mins by fluorescence assay relative to control
[4] = target: Tryptase beta-1 (Homo sapiens) (UniProt Q15661); experiment: Inhibition of tryptase beta2 assessed as residual activity at 10 uM after 10 to 15 mins by fluorescence assay relative to control
Stromelysin-3 = Stromelysin-3 (Homo sapiens, UniProt P24347); experiment: Inhibition of MMP11 catalytic domain after 10 to 15 mins by fluorescence assay
[5] = target: Matrilysin (Homo sapiens) (UniProt P09237); experiment: Inhibition of MMP7 assessed as residual activity at 10 uM after 10 to 15 mins by fluorescence assay relative to control
[6] = target: Dipeptidyl peptidase 1 (Homo sapiens) (UniProt P53634); experiment: Inhibition of cathepsin C assessed as residual activity at 10 uM after 10 to 15 mins by fluorescence assay relative to control
[7] = target: T1, Matrix metalloproteinase-9; experiment: Inhibition of MMP9 assessed as residual activity at 10 uM after 10 to 15 mins by fluorescence assay relative to control
[8] = target: Plasma kallikrein (Homo sapiens) (UniProt P03952); experiment: Inhibition of plasma kallikrein assessed as residual activity at 10 uM after 10 to 15 mins by fluorescence assay relative to control; format: cell-free
Caspase-8 (Homo sapiens) = Caspase-8 (Homo sapiens) (UniProt Q14790); experiment: Inhibition of caspase 8 assessed as residual activity at 10 uM after 10 to 15 mins by fluorescence assay relative to control
Stromelysin-1 = Stromelysin-1 (Homo sapiens, UniProt P08254); experiment: Inhibition of MMP3 after 10 to 15 mins by fluorescence assay
Chain of Stromelysin-1 (P08254 whole entry): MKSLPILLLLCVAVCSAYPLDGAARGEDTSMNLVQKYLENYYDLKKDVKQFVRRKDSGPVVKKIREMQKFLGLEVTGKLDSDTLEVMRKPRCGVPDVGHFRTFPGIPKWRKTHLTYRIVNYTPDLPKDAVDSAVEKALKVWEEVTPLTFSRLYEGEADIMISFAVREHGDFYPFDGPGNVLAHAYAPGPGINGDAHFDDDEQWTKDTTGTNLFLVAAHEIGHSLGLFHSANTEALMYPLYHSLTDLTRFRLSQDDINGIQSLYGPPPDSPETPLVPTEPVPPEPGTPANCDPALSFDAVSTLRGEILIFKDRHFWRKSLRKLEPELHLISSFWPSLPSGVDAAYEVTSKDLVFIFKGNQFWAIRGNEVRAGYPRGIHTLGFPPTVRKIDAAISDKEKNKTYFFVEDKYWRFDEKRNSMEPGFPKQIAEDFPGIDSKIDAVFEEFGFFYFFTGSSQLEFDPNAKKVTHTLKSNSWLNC

Caspase-4 [9] = target: Caspase-4 (Mus musculus, UniProt P70343); experiment: Inhibition of mouse caspase 11 after 10 to 15 mins by fluorescence assay
[10] = target: Disintegrin and metalloproteinase domain-containing protein 10 (Homo sapiens) (UniProt O14672); experiment: Inhibition of ADAM10 assessed as residual activity at 10 uM after 10 to 15 mins by fluorescence assay relative to control
Chain of Disintegrin and metalloproteinase domain-containing protein 10 (Homo sapiens) (O14672 whole entry, the tested form may be a part): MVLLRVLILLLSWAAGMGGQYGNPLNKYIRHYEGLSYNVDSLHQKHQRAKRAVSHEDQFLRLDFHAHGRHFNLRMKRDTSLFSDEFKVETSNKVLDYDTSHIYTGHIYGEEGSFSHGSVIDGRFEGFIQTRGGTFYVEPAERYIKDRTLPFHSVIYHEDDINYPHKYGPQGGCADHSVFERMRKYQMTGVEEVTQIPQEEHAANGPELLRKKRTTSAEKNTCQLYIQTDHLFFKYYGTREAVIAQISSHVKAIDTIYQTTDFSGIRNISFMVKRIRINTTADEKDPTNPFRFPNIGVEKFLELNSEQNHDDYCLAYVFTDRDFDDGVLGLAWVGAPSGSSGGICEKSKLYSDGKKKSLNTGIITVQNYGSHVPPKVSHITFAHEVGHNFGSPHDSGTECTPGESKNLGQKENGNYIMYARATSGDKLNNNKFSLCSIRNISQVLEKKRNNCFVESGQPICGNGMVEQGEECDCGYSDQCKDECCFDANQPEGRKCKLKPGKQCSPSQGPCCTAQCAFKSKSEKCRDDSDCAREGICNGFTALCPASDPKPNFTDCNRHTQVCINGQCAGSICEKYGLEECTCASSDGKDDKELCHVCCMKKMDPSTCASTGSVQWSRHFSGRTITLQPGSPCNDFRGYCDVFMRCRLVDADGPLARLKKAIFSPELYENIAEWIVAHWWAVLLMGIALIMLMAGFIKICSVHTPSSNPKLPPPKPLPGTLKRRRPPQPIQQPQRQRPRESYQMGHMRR

[11] = target: T2, Vitamin K-dependent protein C (Homo sapiens, UniProt P04070); experiment: Inhibition of activated protein C assessed as residual activity at 10 uM after 10 to 15 mins by fluorescence assay in presence of 50% […] relative to control
T2 sequence (P04070 43-197 limits assumed): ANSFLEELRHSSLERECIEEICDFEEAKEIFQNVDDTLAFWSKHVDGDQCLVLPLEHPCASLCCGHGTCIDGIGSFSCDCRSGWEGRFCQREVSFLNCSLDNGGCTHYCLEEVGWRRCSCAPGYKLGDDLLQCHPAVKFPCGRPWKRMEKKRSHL
T2 sequence (P04070 212-461 limits assumed): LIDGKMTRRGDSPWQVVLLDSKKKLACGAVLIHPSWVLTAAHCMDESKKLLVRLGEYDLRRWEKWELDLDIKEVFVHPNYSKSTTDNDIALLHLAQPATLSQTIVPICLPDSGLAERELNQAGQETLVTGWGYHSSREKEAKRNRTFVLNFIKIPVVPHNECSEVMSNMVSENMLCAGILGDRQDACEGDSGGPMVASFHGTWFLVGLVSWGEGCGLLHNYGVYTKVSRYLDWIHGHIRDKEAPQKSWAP

Renin (Homo sapiens) = Renin (Homo sapiens) (UniProt P00797); experiment: Inhibition of human renin assessed as residual activity at 10 uM after 10 to 15 mins by fluorescence assay relative to control
Chain of Renin (Homo sapiens) (P00797 whole entry, the tested form may be a part): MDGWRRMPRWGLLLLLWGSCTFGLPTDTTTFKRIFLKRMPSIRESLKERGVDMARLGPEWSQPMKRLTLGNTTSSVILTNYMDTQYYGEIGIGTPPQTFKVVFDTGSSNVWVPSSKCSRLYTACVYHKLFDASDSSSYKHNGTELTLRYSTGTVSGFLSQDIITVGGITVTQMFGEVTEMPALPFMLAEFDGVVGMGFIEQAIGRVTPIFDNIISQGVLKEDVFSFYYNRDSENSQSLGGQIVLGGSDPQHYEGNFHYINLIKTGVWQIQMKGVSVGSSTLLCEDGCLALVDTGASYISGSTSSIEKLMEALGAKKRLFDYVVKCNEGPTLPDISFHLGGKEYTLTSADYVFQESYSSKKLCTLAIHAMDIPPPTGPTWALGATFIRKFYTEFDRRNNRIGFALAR

[12] = target: Disintegrin and metalloproteinase domain-containing protein 17 (Homo sapiens, UniProt P78536); settings: 5.08 to 100000 nM
Collagenase 3 [13] = target: T3, Collagenase 3 (Homo sapiens, UniProt P45452); experiment: Inhibition of MMP13 catalytic domain after 10 to 15 mins by fluorescence assay
[14] = target: Caspase-14 (Homo sapiens) (UniProt P31944); experiment: Inhibition of caspase 14 assessed as residual activity at 10 uM after 10 to 15 mins by fluorescence assay relative to control
[15] = target: Plasminogen (Homo sapiens) (UniProt P00747); experiment: Inhibition of human plasmin assessed as residual activity at 10 uM after 10 to 15 mins by fluorescence assay relative to control
Chain of Plasminogen (Homo sapiens) (P00747 97-580 limits assumed): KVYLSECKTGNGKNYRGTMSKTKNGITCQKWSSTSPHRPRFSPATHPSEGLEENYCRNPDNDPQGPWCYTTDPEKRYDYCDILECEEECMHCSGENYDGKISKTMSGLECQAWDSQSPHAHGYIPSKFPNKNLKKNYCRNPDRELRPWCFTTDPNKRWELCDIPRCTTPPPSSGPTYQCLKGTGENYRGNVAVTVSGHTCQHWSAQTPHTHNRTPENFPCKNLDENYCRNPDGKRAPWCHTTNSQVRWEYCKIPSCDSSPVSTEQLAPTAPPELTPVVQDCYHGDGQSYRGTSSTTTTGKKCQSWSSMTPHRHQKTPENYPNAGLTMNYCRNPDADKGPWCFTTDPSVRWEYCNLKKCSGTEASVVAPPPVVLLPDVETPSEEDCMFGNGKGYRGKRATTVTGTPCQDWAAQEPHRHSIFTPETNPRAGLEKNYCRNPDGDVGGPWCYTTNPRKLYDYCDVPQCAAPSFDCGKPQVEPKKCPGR
Chain of Plasminogen (Homo sapiens) (P00747 581-810 limits assumed): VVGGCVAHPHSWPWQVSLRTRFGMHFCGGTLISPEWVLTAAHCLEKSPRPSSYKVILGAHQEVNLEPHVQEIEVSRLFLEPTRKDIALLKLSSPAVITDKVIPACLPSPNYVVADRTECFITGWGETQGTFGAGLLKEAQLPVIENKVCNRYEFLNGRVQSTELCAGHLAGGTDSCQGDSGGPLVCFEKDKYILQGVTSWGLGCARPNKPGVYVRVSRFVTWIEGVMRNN

Caspase-3 (Homo sapiens) = Caspase-3 (Homo sapiens) (UniProt P42574); experiment: Inhibition of caspase 3 assessed as residual activity at 10 uM after 10 to 15 mins by fluorescence assay relative to control
Caspase-4 [16] = target: Caspase-4 (Homo sapiens, UniProt P49662); experiment: Inhibition of caspase 4 after 10 to 15 mins by fluorescence assay
Caspase-14 = Caspase-14 (Homo sapiens, UniProt P31944); experiment: Inhibition of caspase 14 after 10 to 15 mins by fluorescence assay
[17] = target: Coagulation factor X (Homo sapiens) (UniProt P00742); experiment: Inhibition of factor 10a assessed as residual activity at 10 uM after 10 to 15 mins by fluorescence assay relative to control
Collagenase 3 [18] = target: T3, Collagenase 3; experiment: Inhibition of MMP13 assessed as residual activity at 10 uM after 10 to 15 mins by fluorescence assay relative to control
[19] = target: Stromelysin-3 (Homo sapiens) (UniProt P24347); experiment: Inhibition of MMP11 assessed as residual activity at 10 uM after 10 to 15 mins by fluorescence assay relative to control
Renin = Renin (Homo sapiens, UniProt P00797); experiment: Inhibition of human renin after 10 to 15 mins by fluorescence assay
Chain of Renin (P00797 whole entry): as the sequence (P00797 whole entry, the tested form may be a part) above

[20] = target: Caspase-10 (Homo sapiens) (UniProt Q92851); experiment: Inhibition of caspase 10 assessed as residual activity at 10 uM after 10 to 15 mins by fluorescence assay relative to control
Chain of Caspase-10 (Homo sapiens) (Q92851 220-415 limits assumed): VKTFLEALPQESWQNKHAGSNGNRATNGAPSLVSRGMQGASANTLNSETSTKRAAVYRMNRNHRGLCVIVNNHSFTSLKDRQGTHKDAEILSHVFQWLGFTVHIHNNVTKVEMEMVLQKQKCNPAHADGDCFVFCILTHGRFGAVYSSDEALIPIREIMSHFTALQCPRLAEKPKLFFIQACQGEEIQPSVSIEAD
Chain of Caspase-10 (Homo sapiens) (Q92851 416-521 limits assumed): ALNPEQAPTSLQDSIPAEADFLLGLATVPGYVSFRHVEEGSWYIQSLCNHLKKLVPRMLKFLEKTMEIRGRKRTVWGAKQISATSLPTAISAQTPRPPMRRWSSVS

Caspase-5 = Caspase-5 (Homo sapiens, UniProt P51878); experiment: Inhibition of caspase 5 after 10 to 15 mins by fluorescence assay
Chain of Caspase-5 (P51878 137-327 limits assumed): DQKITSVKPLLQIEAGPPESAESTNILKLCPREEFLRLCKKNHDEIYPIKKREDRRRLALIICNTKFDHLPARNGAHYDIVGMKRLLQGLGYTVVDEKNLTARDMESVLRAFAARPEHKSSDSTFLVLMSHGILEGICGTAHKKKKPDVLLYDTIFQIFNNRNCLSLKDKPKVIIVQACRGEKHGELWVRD
Chain of Caspase-5 (P51878 347-434 limits assumed): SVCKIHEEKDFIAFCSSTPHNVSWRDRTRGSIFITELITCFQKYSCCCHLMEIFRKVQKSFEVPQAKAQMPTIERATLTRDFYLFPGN

[21] = target: T2, Vitamin K-dependent protein C; experiment: Inhibition of activated protein C after 10 to 15 mins by fluorescence assay in presence of 50% […]
[22] = target: T4, Matrix metalloproteinase-14 (Homo sapiens, UniProt P50281); experiment: Inhibition of MMP14 catalytic domain after 10 to 15 mins by fluorescence assay
[23] = target: T4, Matrix metalloproteinase-14; experiment: Inhibition of MMP14 assessed as residual activity at 10 uM after 10 to 15 mins by fluorescence assay relative to control
[24] = target: 72 kDa type IV collagenase (Homo sapiens, UniProt P08253); experiment: Inhibition of MMP2 after 10 to 15 mins by fluorescence assay
[25] = target: Angiotensin-converting enzyme (Homo sapiens) (UniProt P12821); experiment: Inhibition of ACE1 assessed as residual activity at 10 uM after 10 to 15 mins by fluorescence assay relative to control
Stromelysin-2 = Stromelysin-2 (Homo sapiens, UniProt P09238); experiment: Inhibition of MMP10 catalytic domain after 10 to 15 mins by fluorescence assay
Neutrophil collagenase = Neutrophil collagenase (Homo sapiens, UniProt P22894); experiment: Inhibition of MMP8 catalytic domain after 10 to 15 mins by fluorescence assay
[26] = target: Cathepsin Z (Homo sapiens) (UniProt Q9UBR2); experiment: Inhibition of cathepsin Z assessed as residual activity at 10 uM after 10 to 15 mins by fluorescence assay relative to control
Chain of Cathepsin Z (Homo sapiens) (Q9UBR2 whole entry): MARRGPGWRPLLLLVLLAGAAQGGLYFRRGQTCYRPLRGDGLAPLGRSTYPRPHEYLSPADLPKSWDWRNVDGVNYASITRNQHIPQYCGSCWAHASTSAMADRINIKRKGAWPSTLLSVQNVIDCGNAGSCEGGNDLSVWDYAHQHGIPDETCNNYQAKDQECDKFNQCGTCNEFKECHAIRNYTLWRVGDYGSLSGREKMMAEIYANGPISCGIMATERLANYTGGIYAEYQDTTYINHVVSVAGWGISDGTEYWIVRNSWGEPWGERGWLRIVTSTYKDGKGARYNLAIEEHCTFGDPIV

Chain of Interstitial collagenase (P03956 whole entry, the tested form may be a part): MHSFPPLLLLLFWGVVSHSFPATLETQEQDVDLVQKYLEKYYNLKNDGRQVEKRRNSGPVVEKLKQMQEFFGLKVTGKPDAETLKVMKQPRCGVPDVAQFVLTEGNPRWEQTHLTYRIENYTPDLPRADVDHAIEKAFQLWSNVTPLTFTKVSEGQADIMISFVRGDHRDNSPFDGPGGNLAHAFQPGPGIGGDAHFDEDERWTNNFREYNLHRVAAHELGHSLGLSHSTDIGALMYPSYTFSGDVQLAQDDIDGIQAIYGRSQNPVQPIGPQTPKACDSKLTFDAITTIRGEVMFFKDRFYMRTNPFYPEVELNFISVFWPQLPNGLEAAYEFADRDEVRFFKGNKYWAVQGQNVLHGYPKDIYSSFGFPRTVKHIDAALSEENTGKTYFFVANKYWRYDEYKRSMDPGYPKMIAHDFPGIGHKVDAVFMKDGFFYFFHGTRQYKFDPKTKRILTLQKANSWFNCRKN

Q: How did the IC50 (Interstitial collagenase) turn out when COC(=O)[C@@H]1CCCN1C(=O)[C@@H](Cc1ccccc1)N(C)C(=O)[C@H](C)NC(=O)[C@@H](NC(=O)C[C@H](O)[C@H](CC(C)C)NC(=O)[C@H](CC(N)=O)NC(=O)[C@H](CC(C)C)NC(=O)[C@H](OC(=O)[C@@H](OC(=O)[C@H](C(C)C)N(C)C)C(C)C)C(C)C)[C@@H](C)O [GRASSYSTATIN A] (NMe2Val-[Hiv][dHiv]LN[Sta]TA[dNMeF]P-OMe) was run?
A: Its IC50 is 5 µM.

Q: And the IC50 [1]?
A: Its IC50 is 5 µM.

Q: And the Activity (Caspase-4 (Mus musculus))?
A: The Activity was 60%.

Q: And the Activity [2]?
A: The Activity was 71%.

Q: What about the Activity [3] of the same compound?
A: Its Activity is 101%.

Q: And the Activity [4]?
A: The Activity was 74%.

Q: And the IC50 (Stromelysin-3)?
A: Its IC50 is 5 µM.

Q: What about the Activity [5] of the same compound?
A: Its Activity is 90%.

Q: What about the Activity [6] of the same compound?
A: The Activity was 110%.

Q: What about the Activity [7] of the same compound?
A: Its Activity is 81%.

Q: What about the Activity [8] of the same compound?
A: The Activity was 78%.

Q: What about the Activity (Caspase-8 (Homo sapiens)) of the same compound?
A: Its Activity is 82%.

Q: What about the IC50 (Stromelysin-1) of the same compound?
A: The IC50 was 5 µM.

Q: And the IC50 (Caspase-4 [9])?
A: The IC50 was 5 µM.

Q: What about the Activity [10] of the same compound?
A: The Activity was 0%.

Q: What about the Activity [11] of the same compound?
A: The Activity was 130%.

Q: What about the Activity (Renin (Homo sapiens)) of the same compound?
A: Its Activity is 96%.

Q: What about the inhibition [12] of the same compound?
A: Its inhibition is “tde”.

Q: And the IC50 (Collagenase 3 [13])?
A: The IC50 was 5 µM.

Q: And the Activity [14]?
A: Its Activity is 96%.

Q: And the Activity [15]?
A: The Activity was 86%.

Q: What about the Activity (Caspase-3 (Homo sapiens)) of the same compound?
A: Its Activity is 63%.

Q: What about the IC50 (Caspase-4 [16]) of the same compound?
A: Its IC50 is 5 µM.

Q: And the IC50 (Caspase-14)?
A: Its IC50 is 5 µM.

Q: And the Activity [17]?
A: The Activity was 84%.

Q: And the Activity (Collagenase 3 [18])?
A: The Activity was 75%.

Q: What about the Activity [19] of the same compound?
A: Its Activity is 88%.

Q: And the IC50 (Renin)?
A: The IC50 was 50 µM.

Q: And the Activity [20]?
A: Its Activity is 102%.

Q: And the IC50 (Caspase-5)?
A: The IC50 was 5 µM.

Q: What about the IC50 [21] of the same compound?
A: The IC50 was 50 µM.

Q: And the IC50 [22]?
A: Its IC50 is 5 µM.

Q: And the Activity [23]?
A: Its Activity is 76%.

Q: And the IC50 [24]?
A: Its IC50 is 5 µM.

Q: And the Activity [25]?
A: Its Activity is 84%.

Q: And the IC50 (Stromelysin-2)?
A: Its IC50 is 5 µM.

Q: What about the IC50 (Neutrophil collagenase) of the same compound?
A: Its IC50 is 5 µM.

Q: And the Activity [26]?
A: The Activity was 94%.

Source: ChEMBL document CHEMBL1156023, “Grassystatins A-C from marine cyanobacteria, potent cathepsin E inhibitors that reduce antigen presentation” (J Med Chem, 2009)
